Assay results from US20250129104A1, “7H-PYRROLO[2,3-D]PYRIMIDINES AND PREPARATION AND USES THEREOF” (BioSplice Therapeutics, Inc., priority 2021, published 2025).
pEC50: −log10 of the molar value.

molecular target: recombinant DYRK1A kinase (Homo sapiens (Human), UniProt Q13627); assay: DYRK1A kinase assay (Ser/Thr 18 peptide Z-lyte FRET assay); type: biochemical; conditions: DYRK1A kinase activity; 15 μM ATP, 1 h room temperature; method text calls the value IC50
How it was run: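 Recombinant human DYRK1A (0.25 μg/mL) with 15 μM ATP and 4 μM Ser/Thr 18 peptide, 1 h at room temperature with compound (11-point, 1:3, 10 μM top, duplicate). Z-lyte development 1 h, then coumarin/fluorescein FRET emission ratio converted to % phosphorylation; IC50 by non-linear regression.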

pEC50 | Compound
7.47 | COc1ccc(-c2c[nH]c3nc(NCC(C)(C)F)ncc23)cn1 [Compound 6, N-(2-Fluoro-2-methylpropyl)-5-(6-methoxypyridin-3-yl)-7H-pyrrolo[2,3-d]pyrimidin-2-amine]
7.81 | cis-4-((4-Ethoxy-5-(pyrazolo[1,5-a]pyrimidin-5-yl)-7H-pyrrolo[2,3-d]pyrimidin-2-yl)amino)cyclohexan-1-ol [Compound 2225]
7.03 | Fc1cnc2ccc(-c3c[nH]c4nc(C5CC5)ncc34)cn12 [Compound 145, 2-Cyclopropyl-5-(3-fluoroimidazo[1,2-a]pyridin-6-yl)-7H-pyrrolo[2,3-d]pyrimidine]
8.54 | CN1CCN(c2ccc(CNc3ncc4c(-c5ccc6ncncc6c5)c[nH]c4n3)cn2)CC1 [Compound 1982, N-((6-(4-Methylpiperazin-1-yl)pyridin-3-yl)methyl)-5-(quinazolin-6-yl)-7H-pyrrolo[2,3-d]pyrimidin-2-amine]
8.59 | C[C@]1(O)CC[C@@H](Nc2ncc3c(-c4ccc5nccnc5c4)c[nH]c3n2)CC1 [Compound 2228, cis-1-Methyl-4-((5-(quinoxalin-6-yl)-7H-pyrrolo[2,3-d]pyrimidin-2-yl)amino)cyclohexan-1-ol]
6.80 | COc1nc(N[C@@H]2CCOC[C@H]2F)nc2[nH]cc(-c3ccn4nccc4c3)c12 [Compound 2316, N-((3S,4R)-3-Fluorotetrahydro-2H-pyran-4-yl)-4-methoxy-5-(pyrazolo[1,5-a]pyridin-5-yl)-7H-pyrrolo[2,3-d]pyrimidin-2-amine]
7.72 | CN1CCC(Nc2ncc3c(-c4ccn5nccc5n4)c[nH]c3n2)CC1 [Compound 1667, N-(1-Methylpiperidin-4-yl)-5-(pyrazolo[1,5-a]pyrimidin-5-yl)-7H-pyrrolo [2,3-d]pyrimidin-2-amine]
8.02 | FC(F)(F)CNc1ncc2c(-c3ccc4nccn4n3)c[nH]c2n1 [Compound 911, 5-(Imidazo[1,2-b]pyridazin-6-yl)-N-(2,2,2-trifluoroethyl)-7H-pyrrolo[2,3-d]pyrimidin-2-amine]
8.22 | O=C(NCC1CC(F)(F)C1)c1cnn2ccc(-c3c[nH]c4nc(C5CC5)ncc34)cc12 [Compound 1422, 5-(2-Cyclopropyl-7H-pyrrolo[2,3-d]pyrimidin-5-yl)-N-((3,3-difluorocyclobutyl)methyl)pyrazolo[1,5-a]pyridine-3-carboxamide]
7.86 | CN1CCC(Oc2cnc3ccc(-c4c[nH]c5nc(N)ncc45)cc3n2)CC1 [Compound 1994, 5-(3-((1-Methylpiperidin-4-yl)oxy)quinoxalin-6-yl)-7H-pyrrolo[2,3-d]pyrimidin-2-amine]
8.47 | Cn1nnc2ccc(-c3c[nH]c4nc(NCC(F)(F)F)ncc34)cc21 [Compound 824, 5-(1-Methyl-1H-benzo[d][1,2,3]triazol-6-yl)-N-(2,2,2-trifluoroethyl)-7H-pyrrolo[2,3-d]pyrimidin-2-amine]
8.59 | CC(C)(F)CNc1ncc2c(-c3ccc4ncc(C(F)F)n4n3)c[nH]c2n1 [Compound 1081, 5-(3-(Difluoromethyl)imidazo[1,2-b]pyridazin-6-yl)-N-(2-fluoro-2-methylpropyl)-7H-pyrrolo[2,3-d]pyrimidin-2-amine]
7.10 | CN(C(=O)c1cnn2ccc(-c3c[nH]c4nc(C5CC5)ncc34)cc12)C1CC(F)(F)C1 [Compound 1379, 5-(2-Cyclopropyl-7H-pyrrolo[2,3-d]pyrimidin-5-yl)-N-(3,3-difluorocyclobutyl)-N-methylpyrazolo[1,5-a]pyridine-3-carboxamide]
8.82 | COc1nc(N[C@@H]2[C@@H]3COC[C@@H]32)nc2[nH]cc(-c3ccn4nccc4c3)c12 [Compound 2324, N-((1R,5S,6s)-3-oxabicyclo[3.1.0]hexan-6-yl)-4-methoxy-5-(pyrazolo [1,5-a]pyridin-5-yl)-7H-pyrrolo[2,3-d]pyrimidin-2-amine]
7.73 | Cc1nc(OCC2CCN(C)CC2)c2c(-c3ccc4ncccc4c3)c[nH]c2n1 [Compound 1899, 6-(2-Methyl-4-((1-methylpiperidin-4-yl)methoxy)-7H-pyrrolo[2,3-d]pyrimidin-5-yl)quinoline]
7.48 | Cn1nnc2ccc(-c3c[nH]c4nc(CCC(F)(F)F)ncc34)cc21 [Compound 811, 1-Methyl-6-(2-(3,3,3-trifluoropropyl)-7H-pyrrolo[2,3-d]pyrimidin-5-yl)-1H-benzo[d][1,2,3]triazole]
8.35 | CN1CCN(c2cc(Nc3ncc4c(-c5ccc6ncnn6c5)c[nH]c4n3)ccn2)CC1 [Compound 755, 5-([1,2,4]Triazolo[1,5-a]pyridin-6-yl)-N-(2-(4-methylpiperazin-1-yl)pyridin-4-yl)-7H-pyrrolo[2,3-d]pyrimidin-2-amine]
8.17 | C[C@@H](Nc1nc(OCCO)c2c(-c3ccc4nccn4c3)c[nH]c2n1)C(F)(F)F [Compound 2178, (R)-2-((5-(imidazo[1,2-a]pyridin-6-yl)-2-((1,1,1-trifluoropropan-2-yl)amino)-7H-pyrrolo[2,3-d]pyrimidin-4-yl)oxy)ethan-1-ol]

pEC50 | Compound
7.11 | COc1nc(NCC(C)(C)F)nc2[nH]cc(-c3cnc4nc(C)n(CC(F)F)c4c3)c12 [Compound 2269, 5-(1-(2,2-Difluoroethyl)-2-methyl-1H-imidazo[4,5-b]pyridin-6-yl)-N-(2-fluoro-2-methylpropyl)-4-methoxy-7H-pyrrolo[2,3-d]pyrimidin-2-amine]
6.95 | COC[C@@H](C)Nc1nc(OC)c2c(-c3cnc4nc(C)n(CC(F)F)c4c3)c[nH]c2n1 [Compound 2271, (R)-5-(1-(2,2-Difluoroethyl)-2-methyl-1H-imidazo[4,5-b]pyridin-6-yl)-4-methoxy-N-(1-methoxypropan-2-yl)-7H-pyrrolo[2,3-d]pyrimidin-2-amine]
7.81 | c1cnc2ccc(-c3ncc4c(-c5ccc6ncccc6c5)c[nH]c4n3)cc2c1 [Compound 1896, 6,6′-(7H-pyrrolo[2,3-d]pyrimidine-2,5-diyl)diquinoline]
8.62 | C[C@@H](Nc1ncc2c(-c3ccn4nccc4c3)c[nH]c2n1)C(F)(F)F [Compound 1128, (R)-5-(Pyrazolo[1,5-a]pyridin-5-yl)-N-(1,1,1-trifluoropropan-2-yl)-7H-pyrrolo[2,3-d]pyrimidin-2-amine]
8.13 | C[C@]1(O)CC[C@@H](Nc2ncc3c(-c4ccc5nccn5c4)c[nH]c3n2)CC1 [Compound 2235, cis-4-((5-(Imidazo[1,2-a]pyridin-6-yl)-7H-pyrrolo[2,3-d]pyrimidin-2-yl)amino)-1-methylcyclohexan-1-ol]
8.59 | [2H]C([2H])([2H])O[C@H]1CC[C@@H](Nc2ncc3c(-c4ccn5nccc5c4)c[nH]c3n2)CC1 [Compound 2200, N-(cis-4-(Methoxy-d3)cyclohexyl)-5-(pyrazolo[1,5-a]pyridin-5-yl)-7H-pyrrolo[2,3-d]pyrimidin-2-amine]
6.57 | Cc1cn2cc(-c3c[nH]c4nc(C5CC5)ncc34)cc(F)c2n1 [Compound 233, 2-Cyclopropyl-5-(8-fluoro-2-methylimidazo[1,2-a]pyridin-6-yl)-7H-pyrrolo [2,3-d]pyrimidine]
7.18 | CC(C)Cc1ncc2c(-c3ccc4nccn4n3)c[nH]c2n1 [Compound 897, 5-(Imidazo[1,2-b]pyridazin-6-yl)-2-isobutyl-7H-pyrrolo[2,3-d]pyrimidine]
7.09 | COc1nc(NC2CCC(F)(F)CC2)nc2[nH]cc(-c3cc(F)c4nccn4c3)c12 [Compound 2185, N-(4,4-Difluorocyclohexyl)-5-(8-fluoroimidazo[1,2-a]pyridin-6-yl)-4-methoxy-7H-pyrrolo[2,3-d]pyrimidin-2-amine]
6.62 | COc1nc(N[C@H]2CC[C@@H](OC(F)F)CC2)nc2[nH]cc(-c3ccc4nnn(C)c4c3)c12 [Compound 2287, N-(cis-4-(Difluoromethoxy)cyclohexyl)-4-methoxy-5-(1-methyl-1H-benzo[d][1,2,3]triazol-6-yl)-7H-pyrrolo[2,3-d]pyrimidin-2-amine]
7.01 | C[C@@H](Nc1ncc2c(-c3ccn4ncc(Cl)c4n3)c[nH]c2n1)C(F)(F)F [Compound 1681, (R)-5-(3-Chloropyrazolo[1,5-a]pyrimidin-5-yl)-N-(1,1,1-trifluoropropan-2-yl)-7H-pyrrolo[2,3-d]pyrimidin-2-amine]
8.11 | N-(cis-3-Methoxycyclobutyl)-5-(1-methyl-1H-benzo[d][1,2,3]triazol-6-yl)-7H-pyrrolo[2,3-d]pyrimidin-2-amine [Compound 2051]
7.82 | C[C@]1(O)CC[C@H](Nc2ncc3c(-c4ccc5nccn5c4)c[nH]c3n2)CC1 [Compound 2236, trans-4-((5-(Imidazo[1,2-a]pyridin-6-yl)-7H-pyrrolo[2,3-d]pyrimidin-2-yl)amino)-1-methylcyclohexan-1-ol]
7.57 | COc1nc(NC2CCC(F)(F)CC2)nc2[nH]cc(-c3ccc4nccn4c3)c12 [Compound 2241, N-(4,4-Difluorocyclohexyl)-5-(imidazo[1,2-a]pyridin-6-yl)-4-methoxy-7H-pyrrolo[2,3-d]pyrimidin-2-amine]
8.10 | C[C@]1(O)CC[C@H](Nc2ncc3c(-c4cc(F)c5nccn5c4)c[nH]c3n2)CC1 [Compound 2237, trans-4-((5-(8-Fluoroimidazo[1,2-a]pyridin-6-yl)-7H-pyrrolo[2,3-d]pyrimidin-2-yl)amino)-1-methylcyclohexan-1-ol]
7.59 | Cc1cn2nc(-c3c[nH]c4nc(NC(C)C)ncc34)ccc2n1 [Compound 991, N-Isopropyl-5-(2-methylimidazo[1,2-b]pyridazin-6-yl)-7H-pyrrolo[2,3-d]pyrimidin-2-amine]
8.64 | COc1nc(N[C@H]2CC[C@@](C)(O)CC2)nc2[nH]cc(-c3cc(F)c4nccn4c3)c12 [Compound 2186, cis-4-((5-(8-Fluoroimidazo[1,2-a]pyridin-6-yl)-4-methoxy-7H-pyrrolo[2,3-d]pyrimidin-2-yl)amino)-1-methylcyclohexan-1-ol]
